pIC50: −log10 of the molar value.
Columns and labels:
[1] = target: T1, chemokine receptor CCR9 (Homo sapiens, UniProt P51686); assay: CCR9 antagonistic activity, calcium flow (Fluo-4, FlexStation), CCL25 agonist; format: cell-based; settings: antagonistic mode, CCL25 150 nM; for inhibition at 100 µM: read-out: Inhibition rate (%) (100 μM)
T1 construct: expressed in transfected cells
T1 sequence (P51686 1-369): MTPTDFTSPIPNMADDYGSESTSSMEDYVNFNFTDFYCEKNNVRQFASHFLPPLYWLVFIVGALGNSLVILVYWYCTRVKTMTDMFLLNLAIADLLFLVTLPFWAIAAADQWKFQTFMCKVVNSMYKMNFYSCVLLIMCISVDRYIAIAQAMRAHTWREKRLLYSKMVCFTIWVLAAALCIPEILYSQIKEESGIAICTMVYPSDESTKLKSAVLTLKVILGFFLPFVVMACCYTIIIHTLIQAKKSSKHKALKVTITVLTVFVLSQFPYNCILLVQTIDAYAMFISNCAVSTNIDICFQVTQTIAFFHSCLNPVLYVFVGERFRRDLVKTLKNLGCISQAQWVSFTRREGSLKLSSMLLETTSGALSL
Excerpt: 2.1 Main reagents: DMEM culture medium (GIBCO); dimethyl sulfoxide (Sigma); FLUO-4, AM (Invitrogen) 2.2 Main instrument: Flexstation-3 (Molecular Devices) The test concentration gradient of the compound and replicates were set according to the requirement of testing ICSO. All test substances with 8 concentrations were set, with 3 replicates for each concentration. By establishing a cell line that cotransformed the receptor and G16, the receptor being activated can induce the activation of Gα16 protein, thereby activating phospholipase C (PLC) to produce IP3 and DAG. IP3 can bind to the IP3 receptor on the intracellular endoplasmic reticulum and mitochondria, leading to the release of intracellular calcium. Therefore, measuring changes in intracellular calcium can serve as a method for detecting the activation status of target receptor. Fluo-4/AM is a calcium fluorescent probe indicator used to measure calcium ion, as a non-polar lipophilic compound, under the action of cell lipase after entering cells, the AM group dissociates and releases Fluo-4; since Fluo-4 is a polar molecule, it is not easy to pass through lipid bilayers, allowing it to remain in the cell for a long time. Ultimately, the level of G protein activation can be reflected by measuring the excited fluorescence intensity. […] Cells stably expressing the target receptor/Ga16 were planted on a 96 well plate and cultured overnight. 2. The culture solution was removed from the well planted cells, then 40 μL/well of freshly prepared dye was added. The mixture was incubated at a constant temperature in a 37° C. incubator for 40 minutes. 3. The drug to be tested was diluted with calcium buffer and mixed well. 4. The dye was absorbed and discarded. After washed once with freshly prepared calcium buffer, 50 μL of calcium buffer that dissolved the drug to be tested was added for replacement. 5. The FlexStation II instrument was used for detection. Starting from the 15th second, […] dissolved with known agonist was automatically added by the instrument, and finally the fluorescence value at 525 nm was readed. The following formula was used to calculate the cell response rate (% Response) for each sample under each concentration. […] IC50 value was calculated using GraphPad Prism.

[2] = system: acetic acid induced writhing in ICR mice; assay: acetic acid induced writhing pain model in ICR mice; format: in vivo, mouse; settings: for writhing frequency: 30 mg/kg single oral administration 1 h before 0.6% acetic acid i.p., 20 minutes observation, compared with G1 model group, FIG. 6; for efficacy compared with aspirin: 30 mg/kg single oral administration vs 200 mpk of aspirin
Excerpt: The pharmacological effect of compounds prepared in some examples of the present invention on an acetic acid induced writhing pain model in ICR mice was investigated.
The acetic acid writhing pain model in mice is a classic pharmacological model for evaluating the treatment of drugs for visceral pain and inflammatory pain.
• Animal species and strains: ICR mice • Medical treatment history: None • Gender, age, and weight: Male, 8 weeks old, 20-25 g • Breeder/Supplier: Shanghai SLAC Laboratory Animal Co., Ltd • Adaptation period: no less than 7 days • Room: Regular level room • Room temperature: 19-26° C. • Relative humidity: 40-70% • Lighting cycle: fluorescent lighting, 12 hours of illumination (08:00-20:00) and 12 hours of no illumination • Animal feeding: 5 animals/cage divided by group • Food: Free intake (irradiated feed, Shanghai SLAC Laboratory Animal Co., Ltd, China) • Water: Free intake (Mol Ultrapure Water System filtered municipal tap water)
A total of 70 mice were introduced from Shanghai SLAC Laboratory Animal Co., Ltd. The animals were SPF grade and purchased at approximately 7 weeks old.
Animals are randomly assigned to each treatment group according to the weight using the BioBook randomization function to achieve an approximate average weight for each group and reduce inter group bias.
3.1 Within 12 hours before use, a glacial acetic acid solution with a mass volume fraction of 0.6% was prepared with 0.9% physiological saline.
3.2. Administration treatment: G1 group animals were orally administered 0.9% physiological saline; G2-G6 were specifically administered the compounds of the present invention referred to the specific dosage regimen in Table 9.
3.3. Modeling treatment: G1 group animals were administered 0.9% physiological saline by gavage, and after 1 hour, 0.6% glacial acetic acid was injected intraperitoneally to induce pain response (10 ml/kg). G2-G8 group animals were injected intraperitoneally with 0.6% glacial acetic acid to induce pain response (10 ml/kg) after different groups were administered according to the regimen designed in Table 9.
3.4 Measurement: The weight of all mice was recorded before modeling treatment. A torsion test was recorded immediately after acetic acid treatment. The behavioral observation period lasted for 20 minutes. Writhes were counted by a single preson (one standard writhe includes abdominal muscle contraction, muscle extension, and hind limb extension). After testing, the animals were euthanized with CO2.
3.5 Experimental observation: Animal health observation and general response to drug treatment were conducted daily. All abnormal health and behavioral behaviors were recorded.
The experimental data was calculated as mean±standard error. Statistical analysis was performed using Graphpad Prism, SPSS, or Sigmaplot software. The specific data is presented in the form of graphs. P<0.05 is considered to have statistical differences.

inhibition at 100 µM [1]	pIC50 [1]	Structure (SMILES)	writhing frequency [2]	efficacy compared with aspirin [2]
8%	< 4.00	NCc1ccc(NS(=O)(=O)c2ccsc2)c(-c2ccco2)c1 [ID-5]	significantly reduce	basically equivalent to that of 200 mpk of aspirin
8%	< 4.00	CNCc1ccc(-c2cc[nH]n2)c(NS(=O)(=O)c2ccccc2)c1 [IA-55, N-(5-((methylamino)methyl)-2-(1H-pyrazol-3-yl)phenyl)benzenesulfonamide]	significantly reduce	basically equivalent to that of 200 mpk of aspirin
3%	< 4.00	CNCc1ccc(NS(=O)(=O)c2ccsc2)c(-c2ccco2)c1 [IA-30]	significantly reduce	basically equivalent to that of 200 mpk of aspirin
3%	< 4.00	CNCc1ccc(-c2nccs2)c(NS(=O)(=O)c2ccccc2)c1 [IA-51, N-(5-((methylamino)methyl)-2-(thiazol-2-yl)phenyl)benzenesulfonamide]	significantly reduce	basically equivalent to that of 200 mpk of aspirin

Reference: patent publication US20240262812A1, “N-SUBSTITUTED PHENYLSULFONAMIDE COMPOUND AND USE THEREOF” (Shanghai Leado Pharmatech Co., Ltd., priority 2021, published 2024)
